Laboratory results: ChEMBL document CHEMBL3425503, “Synthesis and studies on the mGluR agonist activity of FAP4 stereoisomers” (Bioorg Med Chem Lett, 2015)
Calls of active or inactive are those of the source. The calls are words filed in the database; no cut-off is given here.

Assays:
Assay type in all cases: functional, cell-based
[1] = target: Metabotropic glutamate receptor 4 (Rattus norvegicus, UniProt P31423); assay: Agonist activity at rat mGluR4 expressed in HEK293 cells assessed as induction of inositol phosphate production by HTRF assay
[2] = target: Metabotropic glutamate receptor 7 (Rattus norvegicus, UniProt P35400); assay: Agonist activity at rat mGluR7 expressed in HEK293 cells assessed as induction of inositol phosphate production by HTRF assay
[3] = target: Metabotropic glutamate receptor 8 (Rattus norvegicus, UniProt P70579); assay: Agonist activity at rat mGluR8 expressed in HEK293 cells assessed as induction of inositol phosphate production by HTRF assay
[4] = target: Metabotropic glutamate receptor 6 (Rattus norvegicus, UniProt P35349); assay: Agonist activity at rat mGluR6 expressed in HEK293 cells assessed as induction of inositol phosphate production by HTRF assay
[5] = target: Metabotropic glutamate receptor 2 (Rattus norvegicus, UniProt P31421); assay: Agonist activity at rat mGluR2 expressed in HEK293 cells assessed as induction of inositol phosphate production by HTRF assay
[6] = target: Metabotropic glutamate receptor 5 (Rattus norvegicus) (UniProt P31424); assay: Agonist activity at rat mGluR5 expressed in HEK293 cells assessed as induction of inositol phosphate production at 100 uM by HTRF assay
[7] = target: Metabotropic glutamate receptor 1 (Rattus norvegicus) (UniProt P23385); assay: Agonist activity at rat mGluR1 expressed in HEK293 cells assessed as induction of inositol phosphate production at 100 uM by HTRF assay
Metabotropic glutamate receptor 1 (Rattus norvegicus), sequence (P23385 19-1199 limits assumed): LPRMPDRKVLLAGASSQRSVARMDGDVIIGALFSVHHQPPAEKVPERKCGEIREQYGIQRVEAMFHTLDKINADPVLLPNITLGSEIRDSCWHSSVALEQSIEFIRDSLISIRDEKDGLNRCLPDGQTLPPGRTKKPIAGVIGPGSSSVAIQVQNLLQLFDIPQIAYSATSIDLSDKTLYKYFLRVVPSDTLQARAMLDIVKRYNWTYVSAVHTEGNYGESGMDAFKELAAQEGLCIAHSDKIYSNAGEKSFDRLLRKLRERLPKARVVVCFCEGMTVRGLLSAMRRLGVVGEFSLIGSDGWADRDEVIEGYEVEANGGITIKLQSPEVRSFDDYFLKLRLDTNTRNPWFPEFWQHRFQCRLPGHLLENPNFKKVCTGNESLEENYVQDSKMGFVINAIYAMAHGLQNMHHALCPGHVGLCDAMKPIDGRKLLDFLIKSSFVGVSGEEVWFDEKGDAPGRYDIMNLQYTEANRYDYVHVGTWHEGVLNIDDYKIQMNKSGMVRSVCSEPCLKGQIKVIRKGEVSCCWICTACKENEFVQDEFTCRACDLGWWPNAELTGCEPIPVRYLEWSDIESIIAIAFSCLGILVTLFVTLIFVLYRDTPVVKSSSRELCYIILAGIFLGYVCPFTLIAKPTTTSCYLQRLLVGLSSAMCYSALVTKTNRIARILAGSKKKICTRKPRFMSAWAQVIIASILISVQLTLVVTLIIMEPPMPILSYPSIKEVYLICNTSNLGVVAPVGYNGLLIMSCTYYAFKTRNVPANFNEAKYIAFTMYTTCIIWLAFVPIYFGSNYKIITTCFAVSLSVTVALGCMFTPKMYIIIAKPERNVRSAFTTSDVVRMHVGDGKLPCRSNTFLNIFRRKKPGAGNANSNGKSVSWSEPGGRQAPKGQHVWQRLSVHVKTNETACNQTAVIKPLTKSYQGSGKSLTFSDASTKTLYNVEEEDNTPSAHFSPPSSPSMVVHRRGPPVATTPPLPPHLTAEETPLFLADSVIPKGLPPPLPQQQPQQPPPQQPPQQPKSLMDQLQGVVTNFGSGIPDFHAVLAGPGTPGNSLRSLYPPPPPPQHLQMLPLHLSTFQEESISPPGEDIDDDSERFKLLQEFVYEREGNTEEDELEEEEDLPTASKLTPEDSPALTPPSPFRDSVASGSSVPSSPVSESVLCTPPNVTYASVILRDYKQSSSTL

Metabotropic glutamate receptor 4, sequence (P31423 whole entry): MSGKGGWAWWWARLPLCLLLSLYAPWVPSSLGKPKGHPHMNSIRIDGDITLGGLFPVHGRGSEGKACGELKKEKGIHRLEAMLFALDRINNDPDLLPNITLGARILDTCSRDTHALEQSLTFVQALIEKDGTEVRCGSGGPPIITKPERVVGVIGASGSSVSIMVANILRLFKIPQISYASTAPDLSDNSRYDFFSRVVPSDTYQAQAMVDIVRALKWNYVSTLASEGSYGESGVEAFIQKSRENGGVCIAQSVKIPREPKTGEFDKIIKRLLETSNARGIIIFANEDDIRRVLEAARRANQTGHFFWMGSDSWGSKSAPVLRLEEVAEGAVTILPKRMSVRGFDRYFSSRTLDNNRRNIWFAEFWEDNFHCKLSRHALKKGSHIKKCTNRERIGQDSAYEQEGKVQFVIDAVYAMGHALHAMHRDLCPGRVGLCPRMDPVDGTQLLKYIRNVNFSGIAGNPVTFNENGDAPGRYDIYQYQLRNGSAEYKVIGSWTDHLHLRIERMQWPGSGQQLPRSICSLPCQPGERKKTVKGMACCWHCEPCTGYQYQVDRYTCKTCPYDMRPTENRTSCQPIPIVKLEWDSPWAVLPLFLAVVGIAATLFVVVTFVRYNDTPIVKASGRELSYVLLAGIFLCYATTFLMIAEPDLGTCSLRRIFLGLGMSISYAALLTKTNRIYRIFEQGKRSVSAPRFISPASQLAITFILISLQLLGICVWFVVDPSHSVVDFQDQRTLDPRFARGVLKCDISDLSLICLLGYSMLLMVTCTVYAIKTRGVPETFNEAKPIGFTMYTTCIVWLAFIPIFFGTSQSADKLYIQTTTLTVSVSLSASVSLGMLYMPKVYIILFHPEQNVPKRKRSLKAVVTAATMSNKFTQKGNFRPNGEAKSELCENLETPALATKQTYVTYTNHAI
Metabotropic glutamate receptor 6, sequence (P35349 whole entry): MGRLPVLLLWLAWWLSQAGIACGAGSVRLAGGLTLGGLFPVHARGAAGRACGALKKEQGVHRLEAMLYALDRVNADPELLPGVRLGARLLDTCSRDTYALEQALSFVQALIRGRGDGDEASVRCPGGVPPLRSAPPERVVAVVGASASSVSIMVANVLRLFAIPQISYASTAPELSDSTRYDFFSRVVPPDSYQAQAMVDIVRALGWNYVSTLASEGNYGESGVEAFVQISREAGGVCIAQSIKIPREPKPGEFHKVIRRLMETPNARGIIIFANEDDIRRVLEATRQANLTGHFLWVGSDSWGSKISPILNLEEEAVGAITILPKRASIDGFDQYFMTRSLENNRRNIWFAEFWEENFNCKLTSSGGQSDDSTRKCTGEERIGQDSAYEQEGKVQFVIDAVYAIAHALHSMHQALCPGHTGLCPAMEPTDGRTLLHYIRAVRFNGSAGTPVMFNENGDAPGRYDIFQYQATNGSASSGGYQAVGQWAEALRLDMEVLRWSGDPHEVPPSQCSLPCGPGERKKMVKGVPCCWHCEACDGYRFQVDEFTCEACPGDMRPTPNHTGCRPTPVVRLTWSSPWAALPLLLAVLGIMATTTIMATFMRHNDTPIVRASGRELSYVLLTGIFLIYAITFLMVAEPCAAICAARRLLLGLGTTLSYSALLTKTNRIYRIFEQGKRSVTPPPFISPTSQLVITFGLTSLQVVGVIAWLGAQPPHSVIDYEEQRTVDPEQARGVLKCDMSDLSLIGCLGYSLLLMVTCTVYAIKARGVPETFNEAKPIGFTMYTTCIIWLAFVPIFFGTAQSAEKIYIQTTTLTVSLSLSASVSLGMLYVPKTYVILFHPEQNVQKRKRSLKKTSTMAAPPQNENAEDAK
Metabotropic glutamate receptor 8, sequence (P70579 whole entry): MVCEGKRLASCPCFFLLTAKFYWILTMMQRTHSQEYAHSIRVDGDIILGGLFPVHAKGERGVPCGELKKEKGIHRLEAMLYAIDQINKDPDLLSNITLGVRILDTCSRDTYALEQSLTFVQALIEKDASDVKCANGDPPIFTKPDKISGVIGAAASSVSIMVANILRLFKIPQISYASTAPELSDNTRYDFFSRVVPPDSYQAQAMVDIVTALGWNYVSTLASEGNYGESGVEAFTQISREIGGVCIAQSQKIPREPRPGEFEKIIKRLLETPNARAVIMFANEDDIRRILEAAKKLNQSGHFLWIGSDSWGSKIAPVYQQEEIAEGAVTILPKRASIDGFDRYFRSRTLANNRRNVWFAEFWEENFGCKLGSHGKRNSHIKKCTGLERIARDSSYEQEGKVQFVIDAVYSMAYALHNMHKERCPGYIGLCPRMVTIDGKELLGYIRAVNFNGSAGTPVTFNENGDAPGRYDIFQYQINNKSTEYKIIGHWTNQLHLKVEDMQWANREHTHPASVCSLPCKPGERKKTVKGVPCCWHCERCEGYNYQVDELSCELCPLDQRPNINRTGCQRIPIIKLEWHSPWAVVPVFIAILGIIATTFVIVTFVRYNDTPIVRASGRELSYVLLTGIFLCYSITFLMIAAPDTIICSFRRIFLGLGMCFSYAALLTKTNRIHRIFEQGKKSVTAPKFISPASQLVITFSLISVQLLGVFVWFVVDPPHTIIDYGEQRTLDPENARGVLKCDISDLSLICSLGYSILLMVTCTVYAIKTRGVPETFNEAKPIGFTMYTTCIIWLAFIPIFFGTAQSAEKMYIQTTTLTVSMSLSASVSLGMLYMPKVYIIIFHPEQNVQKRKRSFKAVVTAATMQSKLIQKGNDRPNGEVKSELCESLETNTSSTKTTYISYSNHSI
Metabotropic glutamate receptor 7, sequence (P35400 whole entry): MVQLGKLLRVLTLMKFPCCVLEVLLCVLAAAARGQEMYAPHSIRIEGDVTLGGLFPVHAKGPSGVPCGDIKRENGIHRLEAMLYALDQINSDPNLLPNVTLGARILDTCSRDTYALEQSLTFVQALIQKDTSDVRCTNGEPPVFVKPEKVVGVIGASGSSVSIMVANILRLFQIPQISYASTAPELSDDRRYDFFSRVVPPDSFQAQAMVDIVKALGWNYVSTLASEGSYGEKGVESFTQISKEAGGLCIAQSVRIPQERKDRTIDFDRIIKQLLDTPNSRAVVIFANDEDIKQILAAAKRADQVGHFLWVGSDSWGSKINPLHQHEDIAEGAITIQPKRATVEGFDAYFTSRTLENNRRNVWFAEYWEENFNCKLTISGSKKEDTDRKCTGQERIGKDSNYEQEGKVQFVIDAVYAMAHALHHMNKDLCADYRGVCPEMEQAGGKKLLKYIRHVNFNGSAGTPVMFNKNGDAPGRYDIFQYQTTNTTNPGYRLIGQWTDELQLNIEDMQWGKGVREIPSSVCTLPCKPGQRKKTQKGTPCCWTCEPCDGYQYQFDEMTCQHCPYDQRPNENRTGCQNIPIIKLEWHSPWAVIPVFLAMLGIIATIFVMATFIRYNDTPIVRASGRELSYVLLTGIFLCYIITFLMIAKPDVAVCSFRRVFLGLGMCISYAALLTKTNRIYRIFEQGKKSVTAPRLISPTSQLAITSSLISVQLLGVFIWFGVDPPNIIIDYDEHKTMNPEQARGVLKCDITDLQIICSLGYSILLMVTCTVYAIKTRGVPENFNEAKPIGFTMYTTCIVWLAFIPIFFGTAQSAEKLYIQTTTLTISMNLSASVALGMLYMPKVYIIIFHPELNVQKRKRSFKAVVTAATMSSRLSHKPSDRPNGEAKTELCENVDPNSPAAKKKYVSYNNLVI

SMILES | EC50 [1] [µM] | EC50 [2] [µM] | EC50 [3] [µM] | EC50 [4] [µM] | also measured
N[C@@]1(C(=O)O)C[C@H]1CP(=O)(O)O | 0.03 |  |  |  | 
N[C@@H](CCP(=O)(O)O)C(=O)O | 0.03 | 426 | 0.11 | 3.45 | 
NC1(C(=O)O)CC1(F)CP(=O)(O)O (racemic; form 1) [listing 1 of 2 here] | 0.3 | > 100 | 1.25 | 6.01 | EC50 [5]: > 100 µM
NC1(C(=O)O)CC1(F)CP(=O)(O)O (racemic; form 1) [listing 2 of 2 here] |  |  |  |  | Activity [6]: inactive; Activity [7]: inactive
NC1(C(=O)O)CC1(F)CP(=O)(O)O (racemic; form 2) | 0.1 |  |  |  | 
NC1(C(=O)O)CC1(F)CP(=O)(O)O (single isomer, unassigned; form 1) | 0.12 |  |  |  | 
NC1(C(=O)O)CC1(F)CP(=O)(O)O (single isomer, unassigned; form 2) | 0.1 |  |  |  | 
NC1(C(=O)O)CC1(F)CP(=O)(O)O (stereo in doubt; form 1) | 11.4 |  |  |  | 
NC1(C(=O)O)CC1(F)CP(=O)(O)O (stereo in doubt; form 2) | 135 |  |  |  | 
N[C@@H](CCC(=O)O)C(=O)O [GLUTAMIC ACID] | 12.6 | > 100 | 21.5 | 82.2 | 
